Source: patent publication US9579322B2, “Methods for treating neurologic disorders” (EIP Pharma, LLC, priority 2014, dated 2017)

Tests used:
amyloid plaque load = test: 2-week pilot study in aged Tg2576 mice; format: in vivo; conditions: 26 month old Tg2576 mice, 2 weeks, versus control animals
[1] = system: cognitive defects in aged rats; test: Morris water maze in aged rats; format: in vivo, Fischer rats
Protocol: Altogether 60 female aged (20-24 months) and 15 young adult female Fischer Rats (2-3 months) were used for the experiment. Rats were treated with oral gavage twice-a-day until the sampling (23 days) with vehicle or VX-745 0.5, 1.5 or 4.5 mg/kg. Learning and memory deficits were analyzed with Morris water maze (MWM) one week after starting the treatment.
All animal experiments were carried out according to the National Institute of Health (NIH) guidelines for the care and use of laboratory animals, and approved by the National Animal Experiment Board, Finland. Altogether 60 female aged (20-24 months) and 15 young (2-3 months) adult female Fischer rats (Charles River, France) were used for the experiment. Animals were housed at a standard temperature (22±1° C.) and in a light-controlled environment (lights on from 7 am to 8 pm) with ad libitum access to food and water. Animals were grouped as follows: • Group 1: 15 Aged Rats treated with Vehicle p.o. BID • Group 2: 15 Aged Rats treated with VX-745 (0.5 mg/kg) p.o. BID • Group 3: 15 Aged Rats treated with VX-745 (1.5 mg/kg) p.o. BID • Group 4: 15 Aged Rats treated with VX-745 (4.5 mg/kg) p.o. BID • Group 5: 15 Young adult control rats treated with Vehicle p.o. BID Drug Delivery and Rat Identification
The rats were assigned to the treatment groups equally based on their body weight and visible platform pre-training performance to ensure that both good and poor learners were equally present in all treatment groups. The treatment was given by oral gavage twice-a-day until the sampling. Vehicle was 1% Pluronic F108 and dosing volume was 5 ml/kg. Administration of vehicles and test compounds was done at 7-9 am and 3-5 pm on the pre-testing phase. On the days of behavioral testing, the treatment was given minimum 1 hour prior to first test trial. Test compounds were formulated and stored according to the instructions provided by the sponsor. The rats were marked accordingly with permanent marker to the tail. Records were kept about treatment groups and daily treatment times.
Water maze task was originally designed by Morris et al. (J Neurosci Methods. 1984; 11: 194 47-60). Testing was performed in a large dark-colored tank (200 cm in diameter) filled with clear water at a temperature of 25.0±1.0° C. A submerged platform (square platform: 10×10 cm; 1.5 cm below water surface) was placed in the middle of the of the NW quadrant. The starting locations, which were labeled N, NE, E, SE, S, SW, W, NW, were located arbitrarily on the pool rim. The rats were lowered into the pool with their nose pointing toward the wall at one of the starting points. The release point adjacent to platform location (NW) was not used.
Before the compound treatment was started, the visible platform pre-training was performed to determine whether any non-cognitive performance impairments (e.g. visual impairments and/or swimming difficulties) were present, which might affect performance on the place or probe trials. After the visible platform pre-training was completed, the data was analyzed and the rats were assigned to the different treatment groups based on their pre-training performance. This procedure was performed to ensure that each treatment group consisted equally both good and poor performers in the cued version of the water maze task.
Acquisition training—weeks 1 (days 8-11) & 2 (days 15-18): After completion of cued trials, acquisition (place) trials were executed to determine the rat's ability to learn the spatial relationship between distant cues and the submerged escape platform which remained in the same location for all place trials. The starting points were randomized (NW is not used). The rats received four trials (15 min apart, 60 s maximum for each trial) each day for 4 days/week. Latency and path length (distance) were evaluated.
Probe trial (day 19): A single probe trial was conducted 24 hours after the last place trial to evaluate memory retention. […]

PSD95 = PSD95 ELISA of cortex and hippocampus extracts; format: in vivo, Fischer rats
Protocol: (§1) The primary objective of this study was to investigate whether pre-treatment with compound VX-745 alleviates cognitive defects in aged rats. Plasma concentration of VX-745 was determined with LC-MS/MS at the end of the study from samples collected 1 hour post dosing. In addition, protein levels of PSD95 in ventral cortex and hippocampus, and levels of IL-1β in the hippocampus were analyzed by specific ELISA assays to evaluate the potential anti-inflammatory effects of VX-745 in the brain
(§2) One hour after the last vehicle or VX-745 morning dosing, the animals (10 per dosing group) were deeply anesthetized with pentobarbital and blood samples were collected by cardiac puncture. 500 μl of blood was collected into EDTA microtubes, centrifuged, and plasma collected. The brains were perfused with heparinized saline, and the brains were collected. Right hemisphere was post-fixed by immersion in 4% PFA in 0.1 M PB for 24 h. After a brief wash with phosphate buffer, the hemisphere was cryoprotected in 30% sucrose in PB for 2-3 days, after which it was frozen on liquid nitrogen and stored at −80° C. for optional future immunohistochemical analysis. […]
(§3) Cortex and hippocampal soluble extracts were analyzed for PSD95 content using an ELISA kit (Cusabio Biotech Ltd., #CSB-EL006938RA, Lot 031154387), while the levels of Il-1β were analyzed only from hippocampus (R&D Systems, #RLB00, Lot 308544).

IL-1β = IL-1β ELISA of hippocampus extracts; format: in vivo, Fischer rats
Protocol: as §1, §2, §3

[2] = Plasma concentration by LC-MS/MS 1 hour post dosing; format: in vivo, Fischer rats
Protocol: as §1
One hour after the last vehicle or VX-745 morning dosing, the animals (10 per dosing group) were deeply anesthetized with pentobarbital and blood samples were collected by cardiac puncture. 500 μl of blood was collected into EDTA microtubes, centrifuged, and plasma collected. The brains were perfused with heparinized saline, and the brains were collected. Right hemisphere was post-fixed by immersion in 4% PFA in 0.1 M PB for 24 h. After a brief wash with phosphate buffer, the hemisphere was cryoprotected in 30% sucrose in PB for 2-3 days, after which it was frozen on liquid nitrogen and stored at −80° C. for optional future immunohistochemical analysis. Left hemisphere was dissected to ventral and dorsal cortex, hippocampus and remaining brain fraction and fresh frozen on dry ice.
Plasma samples were processed using acetonitrile precipitation and then analyzed for VX745 drug concentration by LC-MS/MS

[3] = system: cytokine (IL-1β or TNFα) production in whole blood; conditions: inhibition of cytokine production (anti-inflammatory activity); cited from earlier work
hyperalgesic response = conditions: cited from earlier work
[4] = system: rheumatoid arthritis (RA); conditions: cited from earlier work
[5] = cited from earlier work
[6] = animals; cited from earlier work
[7] = 250 mg b.i.d, phase 2 clinical, RA patients

VX-745
amyloid plaque load (amyloid plaque load): lower amyloid plaque load than control animals | MWM distance at day 17 ([1]; 1.5 mg/kg p.o. BID versus vehicle-treated aged rats, p=0.0.019): statistically significant better performance | MWM change in latency from first test day to last test day ([1]; 1.5 mg/kg p.o. BID versus vehicle-treated aged rats, p=0.007): performed significantly better | MWM change in distance from first test day to last test day ([1]; 1.5 mg/kg p.o. BID versus vehicle-treated aged rats, p=0.012): performed significantly better | MWM latency at day 17 ([1]; 1.5 mg/kg p.o. BID versus vehicle-treated aged rats, p=0.013): statistically significant better performance | MWM latency and distance, comparison of dose groups ([1]; 1.5 mg/kg p.o. BID, about equal to young vehicle-treated rats on Day 17): greatest effect | MWM swim time and distance over sequential testing ([1]; VX-745-treated aged rats, p.o. BID): greater progressive shortening of swim time and distance | MWM probe trial parameters (day 19) ([1]; time in target quadrant and annulus, platform crosses): no positive or negative effects | PSD95 protein levels (PSD95; 1.5 mg/kg): no evident effects | PSD95 protein levels (PSD95; 4.5 mg/kg versus aged vehicle-treated group, p=0.063 Mann-Whitney): statistical trend towards higher levels of PSD95 | IL-1β levels in the hippocampus (IL-1β; 1.5 mg/kg): no evident effects | IL-1β levels in the hippocampus (IL-1β; 4.5 mg/kg, p=0.038 Mann-Whitney, similar to young rats): lower relative to the aged vehicle-treated group | plasma drug concentration relative to concentrations needed for IL-1β inhibition ([2]; 1.5 mg/kg): reached drug concentrations required for blocking IL-1β signaling | plasma drug concentration relative to concentrations needed for IL-1β inhibition ([2]; 4.5 mg/kg): reached concentrations exceeding whole blood IC50 for IL-1β production | plasma drug levels one hour after last dose ([2]; 0.5, 1.5 and 4.5 mg/kg p.o. BID, aged rats): increased in a dose proportional manner | whole blood IC50 [3]: 0.065 to 0.08 µg/mL | effect on hyperalgesia at the 3 mg/kg dose (hyperalgesic response; 3 mg/kg): minimal effect | inhibition of hyperalgesic response (hyperalgesic response; rats, 30 mg/kg, 10 mg/kg and 3 mg/kg): significant inhibition of hyperalgesic response | adverse events in patients [4, 7]: adverse events, including gastrointestinal effects such as diarrhea and abdominal pain, and elevations in liver transaminases | inflammatory markers and clinical improvement [4, 7]: significant reduction in inflammatory markers and clinical improvement | mean plasma drug concentrations ([4]; 250 mg b.i.d, phase 2 clinical): approximately 75 ng/m | adverse neurological effects in humans ([4]; humans): not observed | mean blood concentration in the treatment of rheumatoid arthritis ([4]; treatment of rheumatoid arthritis): approximately 75 ng/mL | blood brain barrier penetration ([5]; animals): known to penetrate the blood brain barrier (BBB) | brain concentrations relative to plasma ([5]; brain versus plasma): 1.7 times | neurological effects at very high doses [6]: adverse neurological effects
